Reference: patent publication US20230082430A1 (C4 Therapeutics, Inc., priority 2019, published 2023)

system: NCIH929.1 cells; assay: Cell viability assay for Table 2 (CellTiter-Glo 2.0, ATP quantification, 96 hr); type: cell-based; settings: 96 h, NCIH929.1 cell viability, 96 hr, top concentration 1 μM, 14 points half log titration; read-out: IC50
Text: Cell Viability Assay for Table 2
CellTiter-Glo® 2.0 Assay was purchased from Promega (Madison, Wis., USA). NCIH929.1 cell line was purchased from ATCC (Manassas, Va., USA). Cell culture flasks and 384-well microplates were acquired from VWR (Radnor, Pa., USA).

Structure (SMILES) | IC50 [nM]
CC(C)(C)OC(=O)N1CCC(n2cc(Cc3ccc4c5c(cccc35)C(=O)N4C3CCC(=O)NC3=O)cn2)CC1 (racemic) [Compound 140, tert-butyl 4-(4-((1-(2,6-dioxopiperidin-3-yl)-2-oxo-1,2-dihydrobenzo[cd]indol-6-yl)methyl)-1H-pyrazol-1-yl)piperidine-1-carboxylate] | < 1
N#Cc1ccc(N2CCN(Cc3ccc(Cc4ccc5c6c(cccc46)C(=O)N5C4CCC(=O)NC4=O)cc3)CC2)c(F)c1 (racemic) [Compound 183, 4-[4-[[4-[[1-(2,6-dioxo-3-piperidyl)-2-oxo-benzo[cd]indol-6-yl]methyl]phenyl]methyl]piperazin-1-yl]-3-fluoro-benzonitrile] | < 1
O=C1CCC(N2C(=O)c3cccc4c(Cc5ccc(CN6CCOCC6)cc5)cnc2c34)C(=O)N1 (racemic) [Compound 221, 3-[20-[[4-(morpholinomethyl)phenyl]methyl]-25-oxo-27,30-diazatricyclododeca-(2),1(18),7(20),19(21),22(27)-pentaen-30-yl]piperidine-2,6-dione] | < 1
O=C1CCC(N2C(=O)c3cccc4c(Cc5ccc(CN6CCC7(CCCO7)CC6)nc5)ccc2c34)C(=O)N1 (racemic) [Compound 268, 3-[6-[[6-(1-oxa-8-azaspiro[4.5]decan-8-ylmethyl)-3-pyridyl]methyl]-2-oxo-benzo[cd]indol-1-yl]piperidine-2,6-dione] | < 1
CC1(C(=O)N2CCC(n3cc(Cc4ccc5c6c(cccc46)C(=O)N5C4CCC(=O)NC4=O)cn3)CC2)CCC1 (single isomer, unassigned) [Compound 67, 3-[6-[[1-[1-(1-methylcyclobutanecarbonyl)-4-piperidyl]pyrazol-4-yl]methyl]-2-oxo-benzo[cd]indol-1-yl]piperidine-2,6-dione] | < 1
N#Cc1ccc(N2CCN(Cc3cnn(Cc4ccc5c6c(cccc46)C(=O)N5C4CCC(=O)NC4=O)c3)CC2)c(F)c1 (single isomer, unassigned) [Compound 129, 4-[4-[[1-[[1-[2,6-dioxo-3-piperidyl]-2-oxo-benzo[cd]indol-6-yl]methyl]pyrazol-4-yl]methyl]piperazin-1-yl]-3-fluoro-benzonitrile] | < 1
CC(C)(C)OC(=O)N1CCC(n2cc(Cc3ccc4c5c(cccc35)C(=O)N4C3CCC(=O)NC3=O)cn2)CC1 (single isomer, unassigned) [Compound 141, tert-butyl 4-[4-[[1-[2,6-dioxo-3-piperidyl]-2-oxo-benzo[cd]indol-6-yl]methyl]pyrazol-1-yl]piperidine-1-carboxylate] | < 1
CC(c1cnn(C2CCN(C(=O)C3(C)CCC3)CC2)c1)c1ccc2c3c(cccc13)C(=O)N2C1CCC(=O)NC1=O (single isomer, unassigned) [Compound 148, 3-(6-(1-(1-(1-(1-methylcyclobutane-1-carbonyl)piperidin-4-yl)-1H-pyrazol-4-yl)ethyl)-2-oxobenzo[cd]indol-1(2H)-yl)piperidine-2,6-dione] | < 1
O=C1CCC(N2C(=O)c3cccc4c(Cc5ccc(CN6CCN(S(=O)(=O)CC(F)(F)F)CC6)cc5)ccc2c34)C(=O)N1 (single isomer, unassigned) [Compound 159, 3-(2-Oxo-6-{4-[4-(2,2,2-trifluoro-ethanesulfonyl)-piperazin-1-ylmethyl]-benzyl}-2H-benzo[cd]indol-1-yl)-piperidine-2,6-dione] | < 1
O=C1CCC(N2C(=O)c3cccc4c(Cc5cnn(C6CCN(C7CCCC78CCC8)CC6)c5)ccc2c34)C(=O)N1 (single isomer, unassigned) [Compound 178, 3-[2-oxo-6-[[1-[1-[spiro[3.4]octan-8-yl]-4-piperidyl]pyrazol-4-yl]methyl]benzo[cd]indol-1-yl]piperidine-2,6-dione] | < 1
N#Cc1ccc(N2CCN(Cc3ccc(Cc4ccc5c6c(cccc46)C(=O)N5C4CCC(=O)NC4=O)cc3)CC2)c(F)c1 (single isomer, unassigned) [Compound 184, 4-(4-(4-((1-(2,6-dioxopiperidin-3-yl)-2-oxo-1,2-dihydrobenzo[cd]indol-6-yl)methyl)benzyl)piperazin-1-yl)-3-fluorobenzonitrile] | < 1
CC1(CN2CCC(n3cc(Cc4ccc5c6c(cccc46)C(=O)N5C4CCC(=O)NC4=O)cn3)C(F)(F)C2)CCC1 (single isomer, unassigned) [Compound 186, 3-[6-[[1-[3,3-difluoro-1-[(1-methylcyclobutyl)methyl]-4-piperidyl]pyrazol-4-yl]methyl]-2-oxo-benzo[cd]indol-1-yl]piperidine-2,6-dione] | < 1
O=C1CC[C@H](N2C(=O)c3cccc4c(Cc5ccc(CN6CCC7(CCCO7)CC6)cc5)ccc2c34)C(=O)N1 (single isomer, unassigned) [Compound 216, 3-[6-[[4-(1-oxa-8-azaspiro[4.5]decan-8-ylmethyl)phenyl]methyl]-2-oxo-benzo[cd]indol-1-yl]piperidine-2,6-dione] | < 1
O=C1CCC(N2C(=O)c3cccc4c(Cc5ccc(CN6CCC7(CCCO7)CC6)cc5)ccc2c34)C(=O)N1 (single isomer, unassigned) [Compound 217, 3-[6-[[4-(1-oxa-8-azaspiro[4.5]decan-8-ylmethyl)phenyl]methyl]-2-oxo-benzo[cd]indol-1-yl]piperidine-2,6-dione] | < 1
O=C1CC[C@H](N2C(=O)c3cccc4c(Cc5ccc(CN6CCOCC6)cc5)ccc2c34)C(=O)N1 (single isomer, unassigned) [Compound 219, 3-(6-(4-(morpholinomethyl)benzyl)-2-oxobenzo[cd]indol-1(2H)-yl)piperidine-2,6-dione] | < 1
O=C1CCC(N2C(=O)c3cccc4c(Cc5ccc(CN6CCOCC6)cc5)ccc2c34)C(=O)N1 (single isomer, unassigned) [Compound 220, 3-(6-(4-(morpholinomethyl)benzyl)-2-oxobenzo[cd]indol-1(2H)-yl)piperidine-2,6-dione] | < 1

same assay, conditions: NCIH929.1 cell viability, 96 hr, top concentration 1 μM, 14 points half log titration; read-out: IC50

Structure (SMILES) | IC50 [nM]
CC1(C(=O)N2CCC(n3cc(Cc4ccc5c6c(cccc46)C(=O)N5C4CCC(=O)NC4=O)cn3)CC2)CCC1 (single isomer, unassigned) [Compound 68, 3-[6-[[1-[1-(1-methylcyclobutanecarbonyl)-4-piperidyl]pyrazol-4-yl]methyl]-2-oxo-benzo[cd]indol-1-yl]piperidine-2,6-dione] | < 1
N#Cc1ccc(N2CCN(Cc3cnn(Cc4ccc5c6c(cccc46)C(=O)N5C4CCC(=O)NC4=O)c3)CC2)c(F)c1 (single isomer, unassigned) [Compound 130, 4-[4-[[1-[[1-[2,6-dioxo-3-piperidyl]-2-oxo-benzo[cd]indol-6-yl]methyl]pyrazol-4-yl]methyl]piperazin-1-yl]-3-fluoro-benzonitrile] | < 1
CC(C)(C)OC(=O)N1CCC(n2cc(Cc3ccc4c5c(cccc35)C(=O)N4C3CCC(=O)NC3=O)cn2)CC1 (single isomer, unassigned) [Compound 142, tert-butyl 4-[4-[[1-[2,6-dioxo-3-piperidyl]-2-oxo-benzo[cd]indol-6-yl]methyl]pyrazol-1-yl]piperidine-1-carboxylate] | < 1
CC(c1cnn(C2CCN(C(=O)C3(C)CCC3)CC2)c1)c1ccc2c3c(cccc13)C(=O)N2C1CCC(=O)NC1=O (single isomer, unassigned) [Compound 149, 3-(6-(1-(1-(1-(1-methylcyclobutane-1-carbonyl)piperidin-4-yl)-1H-pyrazol-4-yl)ethyl)-2-oxobenzo[cd]indol-1(2H)-yl)piperidine-2,6-dione] | < 1
O=C1CCC(N2C(=O)c3cccc4c(Cc5ccc(CN6CCN(S(=O)(=O)CC(F)(F)F)CC6)cc5)ccc2c34)C(=O)N1 (single isomer, unassigned) [Compound 160, 3-(2-Oxo-6-{4-[4-(2,2,2-trifluoro-ethanesulfonyl)-piperazin-1-ylmethyl]-benzyl}-2H-benzo[cd]indol-1-yl)-piperidine-2,6-dione] | < 1
O=C1CCC(N2C(=O)c3cccc4c(Cc5cnn(C6CCN(C7CCCC78CCC8)CC6)c5)ccc2c34)C(=O)N1 (single isomer, unassigned) [Compound 179, 3-[2-oxo-6-[[1-[1-[spiro[3.4]octan-8-yl]-4-piperidyl]pyrazol-4-yl]methyl]benzo[cd]indol-1-yl]piperidine-2,6-dione] | < 1
N#Cc1ccc(N2CCN(Cc3ccc(Cc4ccc5c6c(cccc46)C(=O)N5C4CCC(=O)NC4=O)cc3)CC2)c(F)c1 (single isomer, unassigned) [Compound 185, 4-(4-(4-((1-(2,6-dioxopiperidin-3-yl)-2-oxo-1,2-dihydrobenzo[cd]indol-6-yl)methyl)benzyl)piperazin-1-yl)-3-fluorobenzonitrile] | < 1
CC1(CN2CCC(n3cc(Cc4ccc5c6c(cccc46)C(=O)N5C4CCC(=O)NC4=O)cn3)C(F)(F)C2)CCC1 (single isomer, unassigned) [Compound 187, 3-[6-[[1-[3,3-difluoro-1-[(1-methylcyclobutyl)methyl]-4-piperidyl]pyrazol-4-yl]methyl]-2-oxo-benzo[cd]indol-1-yl]piperidine-2,6-dione] | < 1
O=C1CCC(N2C(=O)c3cccc4c(Cc5ccc(CN6CCN(c7ccccc7F)CC6)cc5)ccc2c34)C(=O)N1 (single isomer, unassigned) [Compound 189, 3-[6-[[4-[[4-(2-fluorophenyl)piperazin-1-yl]methyl]phenyl]methyl]-2-oxo-benzo[cd]indol-1-yl]piperidine-2,6-dione] | < 1
O=C1CCC(N2C(=O)c3cccc4c(Cc5ccc(CN6CCN(c7ccccc7F)CC6)cc5)ccc2c34)C(=O)N1 (single isomer, unassigned) [Compound 190, 3-[6-[[4-[[4-(2-fluorophenyl)piperazin-1-yl]methyl]phenyl]methyl]-2-oxo-benzo[cd]indol-1-yl]piperidine-2,6-dione] | < 100
